From patent publication US9809622B2, “Tumor-targeting polypeptide and application thereof” (Sun Yat-sen University Cancer Center, priority 2013, dated 2017)
Positions of bridges follow the written chain, without caps; N, C: chain ends. Non-standard residues stand in square brackets, D forms with d. Residues, ends and D or L forms follow the SMILES beside them. No end group written: not given here. *: point of attachment. Biotin = O=C1N[C@H]2[C@H](CS[C@H]2CCCCC(=O)*)N1

Columns and labels:
CNE2 cells [1] = assay: Therapeutic effect of 35-AP peptide in tumor-bearing mice; format: in vivo, BALB/C nude mice; settings: 200 μg intravenously every other day 6 times, compared with two control groups, FIG. 6E
Description: Injecting 35-AP peptide to tumor-bearing mice to detect its therapeutic effect. Detailed steps were as follows: • 1) Selecting twenty four 4-week-old BALB/C nude mice; • 2) Trypsinizing CNE2 cells, counting and adjusting the concentration to 1.0*10^6 cells/ml, and re-suspending cells with 200 μl RPMI 1640 medium containing 20% Matrigel, then subcutaneously injecting 200 μl re-suspended cells into the nude mice; • 3) Observing and measuring the size of tumor after 1-2 weeks. Based on the tumor size, the mice were randomly divided into three groups (PBS, Control AP and 35-AP); • 4) Intravenously injecting 200 μl PBS or 200 μg fluorescence peptide dissolved in 200 μl PBS every other day for 6 times in total. Measuring the length and width of tumor before and after injection. The volume of tumor=0.52*(length*width*width); • 5) Performing statistical analysis of the size of tumors.

CNE2 [2] = assay: Cleaved Caspase3 cellular immunofluorescence assay; format: cell-based; settings: incubated with CNE2; FIG. 6C
CNE1 = assay: Apoptosis by Cleaved Caspase 3/7 kit, flow cytometry; format: cell-based; settings: FIG. 6B
Description: (§1) Therapeutic effects of 35-AP peptide were assessed by Cleaved Caspase 3/7 kit. Detailed steps were as followed: • 1) After the cells were planked for 24 hours, the peptide dissolved by 1640 was incubated with cells at 37° C. for four hours; • 2) Trypsinizing cells with TrypLE Expression, counting and adjusting the concentration to 1.0*10^6 cells/ml, and transferring 300 μl into flow cytometry tube; • 3) Adding 10 μl 30*FLICA working solution; • 4) Incubating the cells at 37° C. with 5% CO2 for one hour, and mixing once every 15 minutes; • 5) Washing with 2 ml Washing buffer, then centrifuging at 400 g force for 5 minutes; • 6) Re-suspending the precipitate with 1 ml Washing buffer; • 7) Detecting the staining signal using flow cytometer.

CNE2 [3] = assay: as above; format: cell-based; settings: FIG. 6A
Description: as §1

HONE1 = assay: as above; format: cell-based; settings: FIG. 6B
Description: as §1

5-8F = assay: as above; format: cell-based; settings: FIG. 6B
Description: as §1

SUNE1 = assay: as above; format: cell-based; settings: FIG. 6B
Description: as §1

CNE2 cells [4] = settings: 37° C. two hours
Description: The cellular immunofluorescence assay was applied to detect whether Biotin-35 peptide can penetrate CNE2 cells. Detailed steps were as followed: • 1) Incubating Biotin-35 peptide or Biotin-control peptide with cells at 37° C. for two hours; • 2) Washing three times with 1 ml PBS for 5 minutes; • 3) Fixing the cells with 4% paraformaldehyde for 10 minutes; • 4) Incubating cells with 0.1% Triton-X100 for 5 minutes; • 5) Blocking with 5% BSA for 30 minutes; • 6) Washing with 1 ml PBS twice; • 7) Adding FITC-streptavidin and avoiding light for one hour; • 8) Washing three times with 1 ml PBS for 5 minutes; • 9) Adding DAPI at a ratio of 1:2000 and keeping it away from light at room temperature for 5 minutes, • 10) Washing with 1 ml PBS for 5 minutes, • 11) Mounting samples with Anti-fade, and observing the samples under the laser confocal microscope.

[5] = system: nasopharyngeal carcinoma cell line, CNE2; assay: Blocking test in phage counting assay (35 peptide blocks phage 35 binding); format: cell-based; settings: FIG. 1B
Description: The phage counting assay was conducted to first test the binding ability of phage 35 to nasopharyngeal carcinoma cell line, CNE2 and then test whether the 35 peptide can block the binding of the phage 35 to CNE2. The process will be described in detail hereinafter. • 1) Trypsinizing cells, counting to obtain 1.0*10^6 cells/tube, and re-suspending cells with 200 μl RPMI (Roswell Park Memorial Institute) 1640 medium; • 2) For the blocking test, adding the 35 peptide at a corresponding concentration and incubating on ice for 30 minutes (the binding assay skips this step and directly goes to the third step); • 3) Adding 1.0*10^8 phages, and incubating on ice for binding for one hour; • 4) After washing with 1 ml PBS (Phosphate Buffered Saline), the resulting products were centrifuged at 400 g force for 5 min; repeating this step three times; • 5) Re-suspending the precipitate with 1 ml TBS (Tris Buffered Saline), diluting the resulting suspension liquid 10^3-10^4 fold, and only taking 100 μl for phage count assay; • 6) Inoculating BL21 competent cell for T7 phage with 1:100 v/v, then shaking at 200 RPM at 37° C. for four hours until OD600 (Optical Density at a wavelength of 600 nm) reaches 0.5-1.0 when the bacteria are on the logarithmic phase. […] The titer of phage was calculated based on the diluted factors.

MDA-MB-231 = assay: Near-infrared fluorescence imaging in MDA-MB-231 nude mice model; format: in vivo; settings: FIG. 4D
Description: (§2) Cy5-35 peptide distribution was examined in the different organs and tumors of nude mice. Small animal imaging assay was operated as followed: • 1) Using nine 4-week-old BALB/C nude mice; • 2) Trypsinizing cells, counting and adjusting the concentration to 1.0*10^6 cells/ml, and re-suspending cells with 200 μl RPMI 1640 medium containing 20% Matrigel, then subcutaneously injecting into the nude mice; • 3) Observing and measuring the size of tumor after 1-2 weeks. Based on the tumor size, the mice were randomly divided into three groups (PBS, Cy5-Control and Cy5-35, 3 mice in each group); • 4) Intravenously injecting 200 μl PBS or 300 μg fluorescence peptide dissolved in 200 μl PBS; the peptide distribution is detected in both normal organs and tumor using Caliper IVIS Lumina II; • 5) Obtaining normal organs and the tumor tissues, homogenizing them, and calculating the fluorescence intensity of normal organs and the tumor for statistical analysis.
To detect whether Cy5-35 peptide can apply to other tumors, the peptides were applied to MDA-MB-231 nude mice model.

[6] = system: nasopharyngeal carcinoma cell CNE2; assay: Flow cytometry analysis of binding of Cy5-35 peptide; format: cell-based; settings: 5 μM or 10 μM, on ice 30 minutes; FIG. 1C
Description: Flow cytometry analysis was applied to detect the binding affinity of Cy5-35 peptide to nasopharyngeal carcinoma cell CNE2. Firstly, the 35 peptide and control peptides separately coupled with fluorescent dye Cy5 were synthesized. Then, Cy5-35 peptide were incubated with cells. At the end, the binding efficacy was calculated using the flow cytometry analysis. Detailed steps were as followed: • 1) Trypsinizing cells, counting and adjusting the concentration to 1.0*10^6 cells/tube, and re-suspending cells with 200 μl RPMI 1640 medium; • 2) Adding Cy5-Control peptide or Cy5-35 peptide dissolved with PBS at a concentration of 5 μM or 10 μM, then incubating on ice for 30 minutes. • 3) Washing with 1 ml PBS, then centrifuging at 400 g force for 5 minutes; repeating this step twice; • 4) Re-suspending the precipitate with 1 ml TBS, • 5) Conducting the flow cytometry analysis.

[7] = system: tumor vessels and tumor cells; assay: Targeting and penetrating tumor vessels and tumor cells, frozen section and immunohistochemical assay; format: in vivo, BALB/C nude mice; settings: 300 μg
Description: Cy5-35 peptide is tested to target and penetrate the vessels using the frozen section and immunohistochemical assay. Detailed steps were as followed: • 1) Using nine 4-week-old BALB/C nude mice • 2) Trypsinizing cells, counting and adjusting the concentration to 1.0*10^6 cells/ml, and re-suspending cells with 200 μl RPMI 1640 medium containing 20% Matrigel, then subcutaneously injecting into the nude mice; • 3) Observing and measuring the size of tumor after 1-2 weeks. Based on the tumor size, the mice were randomly divided into three groups (PBS, Cy5-Control and Cy5-35, three mice in each group); • 4) Intravenously injecting 200 μl PBS or 300 μg fluorescence peptide dissolved in 200 μl PBS; • 5) Obtaining the tumor tissues, and making frozen sections and cutting slides, storing at −80° C.; • 6) Fixing the slides in cooled acetone for 10 min, washing 5 times with PBS for 5 minutes; • 7) Soaking the slides with 3% H2O2 to remove endogenous peroxidase and then washing 3 times with 1 ml PBS for 5 minutes; • 8) Blocking with 10% BSA for 20 minutes at room temperature; • 9) Incubating with anti-CD31 mouse first antibody at 4° C. overnight; • 10) Washing 3 times with PBS for 5 minutes; • 11) Incubating anti-mouse FITC second antibody at room temperature for one hour, keeping it away from light, and then washing 3 times with 1 ml PBS for 5 min; • 12) Adding DAPI at room temperature and keeping for 5 minutes and then washing 3 times with 1 ml PBS for 5 minutes; • 13) Covering the slides with anti-fade, then observing the slides under the laser confocal microscope

[8] = system: nasopharyngeal carcinoma cells CNE2; assay: Flow cytometry analysis of cell penetration; format: cell-based; settings: 37° C. two hours; FIG. 2B
Text: The flow cytometry analysis was applied to detect whether phage 35 can penetrate the nasopharyngeal carcinoma cells CNE2.

nasopharyngeal carcinoma = assay: Near-infrared fluorescence imaging of tumor, small animal imaging; format: in vivo, BALB/C nude mice; settings: 24 hours after intravenous injection
Description: as §2

[9] = 2 h after intravenous injection, FIG. 3B

**Q.** Which results are given for `CC(C)C[C@@H](NC(=O)[C@H](N)CCCCN)C(=O)N[C@H](C)C(=O)N[C@H](CCCCN)C(=O)N[C@H](CC(C)C)C(=O)N[C@H](C)C(=O)N[C@H](CCCCN)C(=O)N[C@H](CCCCN)C(=O)N[C@H](CC(C)C)C(=O)N[C@H](C)C(=O)N[C@H](CCCCN)C(=O)N[C@H](CC(C)C)C(=O)N[C@H](C)C(=O)N[C@H](CCCCN)C(=O)NCC(=O)NCC(=O)N[C@H]1CSSC[C@@H](C(=O)O)NC(=O)[C@H](C)NC(=O)[C@H](CC(N)=O)NC(=O)[C@H](CCC(=O)O)NC(=O)[C@H](CC(=O)O)NC(=O)[C@H](Cc2ccc(O)cc2)NC(=O)[C@H](Cc2c[nH]c3ccccc23)NC(=O)[C@H](CCCNC(=N)N)NC1=O` [35-AP peptide, D (KLAKLAKKLAKLAK)-GG-CRWYDENAC] (H-[dK][dL][dA][dK][dL][dA][dK][dK][dL][dA][dK][dL][dA][dK]GGCRWYDENAC-OH; disulfide 17-25 (inferred); N-terminus and C-terminus assumed)?
**A.** tumor volume (CNE2 cells [1]): reduced the tumor volume markedly; cleaved Caspase3 activation (CNE2 [2]): cleaved Caspase3 was activated; cell apoptosis in CNE1 (CNE1): also led to cell apoptosis; apoptosis in CNE2 (CNE2 [3]): can significantly promote the apoptosis; cell apoptosis in HONE1 (HONE1): also led to cell apoptosis; cell apoptosis in 5-8F (5-8F): also led to cell apoptosis; cell apoptosis in SUNE1 (SUNE1): also led to cell apoptosis

**Q.** Which “penetration into CNE2 (cellular immunofluorescence)” value (CNE2 cells [4]) does the source give for “Biotin-CRWYDENAC (cysteine pairing not given here) [Biotin-35 peptide]” here?
**A.** Its value is “is able to penetrate into CNE2”.

**Q.** CRWYDENAC (disulfide 1-9) [35 peptide] was tested. Which “blocking of phage 35 binding to CNE2” value [5] did it give?
**A.** The value was “prevents phage 35 from binding to CNE2 in a dose-dependent manner”.

**Q.** What about the “apoptosis in CNE2” value (CNE2 [3]) of the same compound?
**A.** The value was “cannot induce the apoptosis in CNE2”.

**Q.** Which results are given for “Cy5-CRWYDENAC (disulfide 1-9) [Cy5-35 peptide]”?
**A.** breast cancer imaging (MDA-MB-231): can also be applied in breast cancer imaging; binding to CNE2 cells (flow cytometry) [6]: binds to CNE2 cells in a dose-dependent manner; co-localization with vessel marker CD31 in tumor [7, 9]: co-localized with vessel marker CD31; penetration of tumor vessels and tumor cells [7, 9]: part of Cy5-35 peptides penetrated the tumor vessels and tumor cells; co-localization with vessel marker CD31 in tumor ([7]; half an hour after intravenous injection, FIG. 3A): co-localized with vessel marker CD31; penetration into CNE2 (flow cytometry) [8]: penetrates into CNE2 in a dose-dependent manner; enrichment in tumor (NIR imaging) (nasopharyngeal carcinoma; FIG. 4A): significantly enriched in tumor; residual peptide in lung (NIR imaging) (nasopharyngeal carcinoma; FIG. 4B): certain residual peptides in lung; intensity of fluorescence in tumor versus other organs (nasopharyngeal carcinoma; FIG. 4C): significantly stronger than that in other organs

**Q.** For “D (KLAKLAKKLAKLAK) (D-amino acids) [AP peptide, reference compound]”, which “apoptosis in CNE2” value (CNE2 [3]) is on record?
**A.** Its value is “cannot induce the apoptosis in CNE2”.

**Q.** How did the “apoptosis in CNE2” value (CNE2 [3]) turn out when “D (KLAKLAKKLAKLAK-GG-CRWYDENAC) (KLAKLAKKLAKLAKGGCRWYDENAC; D-amino acids) [(35-AP)D]” was run?
**A.** The value was “also activated the apoptosis of CNE2”.
